Laboratory results from patent US9555049B2, “Arene ruthenium (II) derivatives containing iminophosphorane ligands and their use in cancer therapy” (Research Foundation of the City University of New York, priority 2014, dated 2017).

Columns and labels:
leukemia Jurkat-T = test: MTT toxicity assay, Jurkat; format: cell-based, human; settings: 24 h incubation, mean ± SD (n = 4)
Protocol: (§1) Compounds were added at different concentrations in triplicate.

prostate DU-145 = test: MTT toxicity assay, DU-145; format: cell-based, human; settings: 24 h incubation, mean ± SD (n = 4)
Protocol: as §1

[1] = system: non-tumorigenic human embryonic kidney cells HEK293T; test: MTT toxicity assay, HEK-293T; format: cell-based; settings: 24 h incubation, mean ± SD (n = 4)
Protocol: In order to assess the compounds' selectivity for cancerous cells with respect to normal cell lines, the compounds were also screened for their antiproliferative effects on the non-tumorigenic human embryonic kidney cells HEK293T.
(§2) A549 (lung carcinoma), MiaPaca2 (pancreatic carcinoma), MDA-MB-231 (Triple negative breast carcinoma) and 293T (non-tumoral embryonic kidney cells) were cultured in DMEM medium supplemented with 10% FCS, L-glutamine and penicillin/streptomycin. Media for A549 cells were also supplemented with 2.2 g/l Na2CO3, 100 μg/ml pyruvate and 5 ml non-essential amino acids (Invitrogen). All these media will be referred as ‘complete medium’ hereinafter. Cell cultures were maintained in a humidified atmosphere of 95% air/5% CO2 at 37° C.
(§3) For toxicity assays cells (5×10^4 for Jurkat cells and 10^4 for adherent cell lines) were seeded in flat-bottom 96-well plates (100 μl/well) in complete medium. Adherent cells were allowed to attach for 24 h prior to addition of cisplatin or tested compounds. Compounds were added at different concentrations in triplicate. Cells were incubated with cisplatin or compounds for 24 h and then cell proliferation was determined by a modification of the MTT-reduction method. […] Finally, formazan crystal was dissolved by adding 100 μl/well ^iPrOH (0.05 M HCl) and gently shaking. The optical density was measured at 570 nm using a 96-well multiscanner autoreader (ELISA). In some experiments total cell number and cell viability were determined by the Trypan-blue exclusion test.

lung A549 = test: MTT toxicity assay, A549; format: cell-based, human; settings: 24 h incubation, mean ± SD (n = 4)
Protocol: as §1

[2] = Stability in solution by 31P and 1H NMR; air stability; format: physicochemical
Protocol: The stability of the water-soluble complexes was studied by ^31P {^1H} and ^1H NMR spectroscopy in D2O. […] However, as explained elsewhere in this specification, the biological activity of compound 2 is very fast (in 8 hours compound 2 induces 80% of apoptosis on Jurkat cells). Thus, without wishing to be bound to any particular theory, the observed biological activity is believed to mainly come from coordination compound 2 or its hydrolysis product.

plasmid pBR322 DNA = test: Plasmid (pBR322) DNA electrophoresis (mobility shift assay); format: binding; settings: 37° C., twenty hours, Tris/HCl buffer, up to drug/DNA ratio 2.0
Protocol: For these experiments, cisplatin, all uncoordinated ligands, and the starting dimeric organometallic ruthenium (II) complex [Ru(η^6-p-cymene)Cl]2 were also measured as controls. Plasmid pBR322 presents two main forms, OC (open circular or relaxed) and CCC (covalently closed or supercoiled), which display different electrophoretic mobility. Changes in the electrophoretic mobility of any of the forms upon incubation of the plasmid with a compound are usually interpreted as evidence of interaction. Generally, a drug that induces unwinding of the CCC form will produce a retardation of the electrophoretic mobility, while coiling of the OC form will result in increased mobility.
10 μL aliquots of pBR322 plasmid DNA (20 μg/mL) in buffer (5 mM Tris/HCl, 50 mM NaClO4, pH=7.39) were incubated with different concentrations of the compounds (1-4, 8, 9, [(η^6-p-cymene)Ru(μ-Cl)Cl]2) (in the range 0.25 and 4.0 metal complex:DNAbp) at 37° C. for 20 h in the dark. Samples of free DNA and cisplatin-DNA were prepared as controls. After the incubation period, the samples were loaded onto the 1% agarose gel. The samples were separated by electrophoresis for 1.5 h at 80 V in Tris-acetate/EDTA buffer (TAE). Afterwards, the gel was stained for 30 min. with a solution of GelRed Nucleic Acid stain.

pancreas MiaPaca2 = test: MTT toxicity assay, MiaPaca2; format: cell-based, human; settings: 24 h incubation, mean ± SD (n = 4)
Protocol: as §1

[3] = system: triple negative breast MDA-MB-231; test: MTT toxicity assay, MDA-MB-231; settings: read-out: IC50 MDA-MB-231, 24 h incubation, mean ± SD (n = 4)
Protocol: Cytotoxic activity of the compounds was determined in some human cancer cell lines: leukemia Jurkat-T, lung A549, prostate DU-145, pancreas MiaPaca2, and triple negative breast MDA-MB-231, in comparison to cisplatin.
as §2, §3

Solubility = settings: 1:99 DMSO:H2O
[4] = target: Human serum albumin (HSA) (Homo sapiens, UniProt P02768); test: Interaction with HSA by fluorescence spectroscopy (Stern-Volmer); format: binding; settings: HSA 10 μM, phosphate buffer pH 7.4
Protocol: The fluorescence data was analyzed by the Stern-Volmer equation.
A solution of each compound (8 mM) in DMSO was prepared and ten aliquots of 2.5 μL were added successively to a solution of HSA (10 μM) in phosphate buffer (pH=7.4) to achieve final metal complex concentrations in the range 10-100 μM. The excitation wavelength was set to 295 nm, and the emission spectra of HSA samples were recorded at room temperature in the range of 300 to 450 nm. The fluorescence intensities of all the metal compounds, the buffer and the DMSO are negligible under these conditions. The fluorescence was measured 240 s. after each addition of compound solution. The data were analyzed using the classical Stern-Volmer equation F0/F=1+KSV[Q].

human cell lines = test: MTT toxicity assay, all tested human cell lines; format: cell-based; settings: 24 h incubation
Protocol: as §1

CT DNA = test: DNA precipitation and quantification of ruthenium by ICP-MS; format: binding, calf; set-up: unit not given here
Protocol: In this experiment, 500 μM concentration DNA solutions were treated with 2 equiv of ruthenium compound 2 and compound 3 for twenty hours at 37° C. to promote DNA precipitation. The samples were then centrifuged, and the resulting pellets were analyzed for DNA and metal concentration.
Stock solutions of compounds 2 and 3 (4 mM in water) and CT DNA (11.56 mM in 5 mM Tris/HCl, 50 mM NaClO4, pH=7.39) were freshly prepared prior to use. 216 μl of DNA stock solution were diluted in 3.53 mL of buffer and 1.25 mL of compound stock solution were then added to achieve 5 mL final volume at concentrations of 500 μM in DNA and 1 mM in metal compound. Each sample was incubated at 37° C. for a period of 20 h, then cooled down to room temperature and centrifuged at 3000 rpm for 15 min. and at 4000 rpm for extra 40 min. The supernatant was separated and analyzed for CT DNA concentration by CD spectroscopy. The resulting pellet was washed twice with ice-cold ethanol (1 mL), centrifuged at RT for 1 min. at 4000 rpm, dried under high vacuum and analyzed for Ru content by ICP-MS. The total amount of DNA in each sample was 0.92 mg. Every experiment was run in duplicate.

Jurkat cells = test: Cell death analysis (PS exposure, mitochondrial membrane potential, Hoechst) in Jurkat cells
Protocol: The mechanism of cell death induced by compound 2 and compound 3 was explored in Jurkat cells. Nuclei morphology after twenty-four hour incubation with 1 μM solution of compound 2 or compound 3 was analyzed by Hoechst staining. […] Other apoptotic parameters such as phosphatidylserine exposure and mitochondrial membrane potential dissipation were analyzed using fluorescent probes.
To determine whether caspase inhibition prevented or just delayed cell death, experiments were performed in which cells were treated with compound 2 or compound 3 for twenty-four hours in the presence of z-VAD-fmk and then washed and further cultured in fresh medium for twenty-four hours (FIG. 6). PS exposure was analyzed after the first twenty-four hours in the presence of compound+z-VAD-fmk and twenty-four hours after washing.
Apoptosis/necrosis hallmarks of cells treated with compounds 2 and 3 were analyzed by measuring mitochondrial membrane potential and/or exposure of phosphatidylserine. In some experiments the general caspase inhibitor z-VAD-fmk was added at 50 μM 1 h before compounds. For mitochondrial membrane potential determination cells (2.5×10^5 in 200 μl) after treatment with compounds were incubated at 37° C. for 15 min. in ABB (140 mM NaCl, 2.5 mM CaCl2, 10 mM Hepes/NaOH, pH 7.4) containing 60 mM tetramethylrhodamine ethyl ester (TMRE, Molecular Probes). Phosphatidylserine exposure was quantified by labeling cells with AnnexinV-PE or AnnexinV-DY636 (Invitrogen) after treatment with compounds. AnnexinV was added at a concentration of 0.5 μg/mL and cells were incubated at room temperature for 15 min. In all cases, cells were diluted to 1 ml with ABB to be analyzed by flow cytometry (FACScan, BD Bioscience, Spain).

[5] = system: human renal proximal tubular cells (RPTC); test: XTT assay for RPTC cells; format: cell-based; settings: XTT assay 24 hours
Protocol: Renal proximal tubular cells in primary culture have been described as an in vitro model to study nephrotoxicity.
The human Renal Proximal Tubule Cells (RPTC) a non-tumoral human kidney epithelial cell line (obtained from Lifeline Cell Technology, Frederick, Md., USA) were cultured in Lifeline's RenaLife Medium containing RenaLife LifeFactors with 2.4 mM L-Glutamine, 5 Î¼ g/mL rh insulin, 1.0 Î¼M epinephrine, 10 nM triiodothyronine, 0.1 Î¼ g/mL hydrocortisone hemisuccinate, 10 ng/mL rh EGF, 0.5% FBS and 5 Î¼ g/m transferrin PS (all from Lifeline Cell Technology), at 37° C. in a humidified atmosphere of 95% of air and 5% CO2 (University of Hawaii Cancer Center, Honolulu, Hi., USA). For evaluation of cell viability, cells were seeded at a concentration of 5×10^3 cells/well in 90 μl Lifeline's RenaLife complete medium into tissue culture grade 96-well flat bottom microplates (Thermo Scientific BioLite Microwell Plate, Fisher Scientific, Waltham, Mass., USA) and grown for 24 h. […] The optical density of each well (96-well plates) was quantified using EnVision Multilabel Plate Readers (Perkin Elmer, Waltham Mass., USA) at 450 nm wavelength to measure absorbance. The percentage of surviving cells was calculated from the ratio of absorbance of treated to untreated cells. […]

[6] = Jurkat cells, general caspase inhibitor z-VAD-fmk

Chain of Human serum albumin (HSA) (P02768 25-609): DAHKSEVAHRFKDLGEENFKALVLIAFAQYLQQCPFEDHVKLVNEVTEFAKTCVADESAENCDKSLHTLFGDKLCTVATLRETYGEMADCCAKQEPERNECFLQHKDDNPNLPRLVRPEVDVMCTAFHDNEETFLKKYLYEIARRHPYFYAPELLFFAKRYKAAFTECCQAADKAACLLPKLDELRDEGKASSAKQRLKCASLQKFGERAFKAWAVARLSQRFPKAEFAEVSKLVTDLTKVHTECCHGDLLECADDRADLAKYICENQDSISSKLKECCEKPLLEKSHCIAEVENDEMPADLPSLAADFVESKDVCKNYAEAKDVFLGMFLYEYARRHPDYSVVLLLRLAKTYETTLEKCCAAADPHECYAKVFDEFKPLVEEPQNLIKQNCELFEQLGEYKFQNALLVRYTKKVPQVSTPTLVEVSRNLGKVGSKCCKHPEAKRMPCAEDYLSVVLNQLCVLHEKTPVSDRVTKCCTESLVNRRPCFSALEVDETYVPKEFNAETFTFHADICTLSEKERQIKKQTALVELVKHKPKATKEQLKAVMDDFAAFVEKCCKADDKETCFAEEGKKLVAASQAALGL

Molecule	IC50 (leukemia Jurkat-T)	IC50 (prostate DU-145)	IC50 [1]	IC50 (lung A549)	stability in D2O (NMR spectra) [2]	stability in d^6-DMSO solution [2]	electrophoretic mobility of plasmid pBR322 DNA (plasmid pBR322 DNA)	IC50 (pancreas MiaPaca2)	IC50 [3]	solubility in DMSO:H2O mixtures (Solubility)	Stern-Volmer constant [4]	IC50 (human cell lines)	ruthenium content in DNA precipitate (CT DNA)	AnnexinV+ cells, compound + z-VAD-fmk (Jurkat cells; 24 h with compound + z-VAD-fmk, then 24 h in fresh medium after washing)	PS exposure with z-VAD-fmk (Jurkat cells; [6])	Δψm loss with z-VAD-fmk (Jurkat cells; [6])	Δψm loss (Jurkat cells; Jurkat cells, without z-VAD-fmk)	Nuclei morphology (Hoechst staining) (Jurkat cells; Jurkat, 24 h incubation with 1 μM solution)	AnnexinV+ cells, compound alone for twenty-four hours (Jurkat cells; compound alone, 24 h)	IC50 [5]
[(η^6-p-cymene)Ru([{Cp—P(Ph2)═N—CH2-2-NC5H4}Fe(Cp)]-κ-N,N)Cl]Cl [Compound 4]	9.3 ± 0.07 µM	148 ± 33 µM	114 ± 14.8 µM	> 125 µM	does not change for over three days	stable for weeks	no mobility retardation is observed	> 125 µM	> 125 µM	–	–	–	–	–	–	–	–	–	–	–
Cc1ccc(C(C)C)cc1.O=C(N=P12CN3CN(CN(C3)C1)C2)c1cccc[c]1[Ru][Cl] [Compound 9, [(η^6-p-cymene)Ru{(PTA═N—CO-2-C6H4)-κ-C,N}Cl]]	17.7 ± 7.5 µM	126 ± 28 µM	142 ± 13.1 µM	> 125 µM	–	–	–	54.5 ± 16 µM	75.4 ± 9.8 µM	soluble in mixtures 1:99 DMSO:H2O in micromolar concentrations	–	–	–	–	–	–	–	–	–	–
[(η^6-p-cymene)Ru((Ph3P═N—CO-2-C6H4)-κ-C,N)Cl] [Compound 8]	2.39 ± 0.27 µM	14.2 ± 4.2 µM	4.1 ± 0.06 µM	29.9 ± 5.8 µM	–	stable for weeks	–	8.2 ± 0.98 µM	7.1 ± 0.11 µM	soluble in mixtures 1:99 DMSO:H2O in micromolar concentrations	18100 M⁻¹	–	–	–	–	–	–	–	–	–
[(η^6-p-cymene)Ru(μ-Cl)Cl]2	–	–	–	–	–	–	–	–	–	–	–	> 125 µM	–	–	–	–	–	–	–	–
[(η^6-p-cymene)Ru{(Ph3P═N-8-C9H6N)-κ-N,N}Cl]Cl [Compound 3]	0.9 ± 0.32 µM	6.6 ± 0.85 µM	2.2 ± 1.1 µM	43.3 ± 8 µM	does not change significantly over time	stable for weeks	no mobility retardation is observed	7 ± 0.4 µM	16.2 ± 0.9 µM	–	–	–	2.43±0.18	32%	completely abrogated	20%	40%	chromatin condensation and fragmentation	28%	–
[(η^6-p-cymene)Ru{(Ph3P═N—CO-2-N—C5H4)-κ-N,O}Cl](PF6) [Compound 1]	1.1 ± 0.14 µM	1.89 ± 0.64 µM	2.8 ± 0.2 µM	9.9 ± 1.9 µM	–	stable for weeks	induce retardation of the mobility of the CCC form	2.4 ± 0.18 µM	4.91 ± 2.7 µM	–	–	–	–	–	–	–	–	–	–	–
N.N.[Cl][Pt][Cl] [Cisplatin, reference compound]	10.8 ± 1.2 µM	112 ± 33 µM	69 ± 6.7 µM	114 ± 9.1 µM	–	–	able to both increase and decrease the mobility of the OC and the CCC forms	76.5 ± 7.4 µM	131 ± 18 µM	–	–	–	–	–	–	–	–	–	–	46.4 ± 2.46 µM
